The record followed here is patent US20080269142A1, “ENDOGENOUS THIADIAZABICYCLO GLUTATHIONE-ADDUCT” (priority 2006, published 2008).

This test relates to EA.hy 926 endothelial cells. The experiment in a line: Apoptosis (morphological changes) in treated EA.hy 926 endothelial cells. In kind it is cell-based. How it is done:
EA.hy 926 endothelial cells were incubated in DMEM (10 mL) containing 10% FBS, 100 unit/mL of penicillin, and 100 μg/mL of streptomycin at 37° C. in an atmosphere of 5% CO2. After the cells reached 70-80% confluence (approximately 2×10^6 cells), the complete DMEM was removed and replaced with FBS-free DMEM for treatment with dimethyl-TOG.
As the result, there was little accumulation of TOG in the cells. […] Therefore, high doses of dimethyl-TOG (100 μM and 200 μM) were chosen to detect an apoptosis-inducing effect. When the cells were treated with dimethyl-TOG, typical morphological changes of apoptosis, such as detachment from the substrate, shrinkage, and membrane blebbing were observed as early as 1 h after treatment.
GGT mediates the first step of hydrolysis of extracellular GSH. The hydrolyzed amino acids will be transported back to the cells for GSH biosynthesis (4). Without GGT activity, there would be accumulation of GSH in the extracellular medium and depletion of intracellular GSH.

Consider `CCCCCC(=O)/C=C/C=O` [ONE, 4-oxo-2(E)-nonenal], for which, under “10 μM ONE, 8 h”, the “apoptosis after 8 h of incubation” value was “most of the cells treated with 10 μM ONE went to complete apoptosis”. In addition, the apoptosis-inducing effect entry (ONE 1 μM alone) is “no apoptosis-inducing effect”.
